Patent US8007836B2, “Cleome spinosa extract used in pharmaceutical preparations and cosmetic compositions” (Pierre Fabre Dermo-Cosmetique, priority 2007, dated 2011)

Tested on: human hair follicles
Experiment: Growth of cultivated entire human hair follicles from scalp ex vivo, 14 days of culture
Type: cell-based
Conditions: vs control non-treated follicles, minoxidil concentration not given
Procedure: Study of the effect of a Cleome spinosa extract on the growth of cultivated human hair follicles.
Evaluation of minoxidil, a reference molecule, was conducted in parallel.
Hair follicles originate from the human scalp from plastic surgery departments of hospitals or clinics (two donors).
The skin is shaved and washed in 6 baths of antibiotics. The follicles in the anagen phase are recognizable because they are very vascularized, and then isolated from the skin under a binocular magnifier and cleared of fat.
They are then incubated at 37° C. in 24-well culture dishes in an adequate culture medium containing the products to be tested.
The growth of the stem of the hair follicle is measured with plotting paper under a binocular magnifier on days 0, 4, 5, 7, 9, 12 or 14.
The determination of the growth and activity percentages of the hydroalcoholic extract of Cleome spinosa was carried out after 4 or 5, 7 or 8, 12 and 14 days of treatment of the hair follicles as compared with control non-treated follicles.
Notation: Tx is the time x after treatment • T0 is time 0 of the beginning of the treatment
The growth percentage is equal to (Tx measurement−T0 measurement)/T0 measurement×100
The activity of the treatment is calculated in the following way: [(Tx treated measurement−T0 treated measurement)−(Tx control measurement−T0 control measurement)]/(Tx control measurement−T0 control measurement)×100

SMILES: Nc1cc(N2CCCCC2)nc(N)[n+]1[O-] [Minoxidil, 2,4-diamino-6-piperidinopyrimidine-3-oxide]
- % of activity (D4/D5 of treatment): 55%
- % of activity (D8/D7 of treatment): 41%
- % of activity (D12 of treatment): 21%
- % of activity (D14 of treatment): 17%
